Among the data in US20130296432A1, “BENZOIC ACID-ENRICHED PLANT EXTRACTS AND USE THEREOF” (EPC (BEIJING) NATURAL PRODUCTS CO., LTD., priority 2012, published 2013) are Inhibition and colony number values, retold here.

In this experiment the test system is Aspergillus niger. The experiment can be described thus: Bacteria inhibiting effect, dilution-plate method (colony count). It counts as cell-based. Conditions: 27° C., 72 h. The procedure:
• 1. […] Dilution-plate method The preservatives were dissolved with sterilized water and diluted to the concentrations in Table 1. 1 ml of each sample was added into a sterilized Petri dish, and then 1 ml bacterial suspension was added into each dish. The sample and the bacterial suspension were well mixed in the dish and 20 ml sterilized culture medium was added into the dish at ≦45° C., such that the final concentration of the preservatives is as described in Table 1. After solidification, the dish was incubated in a constant temperature incubator at 27° C. for 72 h, and the number of the colony was then counted.

[1] abbreviates: final concentration of the preservative 0.01 % (extract calculated as benzoic acid).
[2] abbreviates: final concentration of the preservative 0.02 % (extract calculated as benzoic acid).
[3] abbreviates: final concentration of the preservative 0.04 % (extract calculated as benzoic acid).

On to `O=C(O)c1ccccc1` [Benzoic acid], for which the Inhibition (usually the change of the read-out against control, counted positive when it falls) is, setting by setting: under setting [1], 0%; under setting [2], 40%; under setting [3], 62%. Also, the colony number runs as follows: under setting [1], 49 cfu/dish; under setting [2], 32 cfu/dish; under setting [3], 20 cfu/dish.
In the case of `C/C=C/C=C/C(=O)O` [Sorbic acid], under setting [1], the Inhibition is 0% and the colony number is listed as 50 cfu/dish. Besides, under setting [2], the Inhibition is given as 38% and the colony number is 33 cfu/dish.
